Assay results published in patent publication EP3516395B1, “METHOD FOR DETERMINING AFFINITY BETWEEN LIGANDS AND A TARGET” (Plant Advanced Technologies Pat, priority 2016, dated 2018).

Tests used:
[1] = system: hyaluronidase de testicules bovins; assay: Affinity by binding, ultrafiltration and UPLC-MS (Example 5); conditions: chromatogram B, figure 3
Procedure: (§1) Une solution de travail de hyaluronidase de testicules bovins à 5 mg/mL est préparée en dissolvant de la poudre de l'enzyme lyophilisée dans un tampon phosphate salin à 50 mM, avec un pH de 7,0. Une solution de travail de trypsine (la cible témoin) est préparée de la même manière que celle de hyaluronidase. L'échantillon est préparé en utilisant l'un des solvants suivants : des glycols, DMSO (diméthylsulfoxide), l'éthanol pur ou en solution dans l'eau. La concentration dans l'échantillon de ligand initial doit être dans la gamme de 0,75 à 1 mM. Le ligand choisi (quercétine) est un inhibiteur connu de l'hyaluronidase (Asian J. Chem. 2013, 25, 10262-10266). Un échantillon de référence est préparé également en diluant l'échantillon de 10 à 20 fois dans une solution de trois quarts de volume d'acétonitrile et d'un quart de volume d'eau. […]

trypsine [2] = assay: Affinity by binding, ultrafiltration and UPLC-MS, control target (Example 5); conditions: chromatogram C, figure 3
Procedure: as §1

hyaluronidase = conditions: 200 µM; Asian J. Chem. 2013, 25, 10262-10266; cited from earlier work
trypsine [3] = conditions: 2660 µM; International Journal of Food Science & Technology 2014, 49, 1063-1069; cited from earlier work
tyrosinase de champignon = assay: Relative affinity by competitive binding, ultrafiltration and UPLC-MS/UV (Example 1); conditions: equimolar ligands
Procedure: Une solution de travail de tyrosinase de champignon à 1.25 mg/mL est préparée en dissolvant de la poudre de l'enzyme lyophilisée dans 50 mM d'acétate d'ammonium, avec un pH de 7.0. L'échantillon est préparé en utilisant l'un des solvants suivants : des glycols, DMSO (diméthylsulfoxide), l'éthanol, pur ou en solution dans l'eau. La concentration dans l'échantillon des ligands initiaux est équimolaire et doit être dans la gamme de 0,75 à 1 mM. Les ligands choisis étaient des inhibiteurs connus de la tyrosinase isolés depuis des racines de murier noir (Morus nigra) : la moracénine A, moracénine B et la kuwanone C. Un échantillon de référence est préparé également en diluant l'échantillon de 10 à 20 fois dans une solution d'eau et d'un quart de volume d'acétonitrile.
• 1. Étape de préconditionnement - Des puits à membrane filtrante sont pré-conditionnées avec un volume de 500 µl d'une solution à 85% d'acétate d'ammonium et 15% d'éthanol qui est passé à travers la membrane avec une centrifugation de 14000 g pendant 60 secondes. • 2. Étape de liaison - La préparation de tyrosinase (1.25 mg/mL, 75 µL) est mélangée avec 5 µl de l'échantillon dans un tube d'Eppendorf en plastique, puis est incubée pendant 5 min. Dans ce mélange, on a 9,16 µM de tyrosinase et une gamme de 46,88 µM à 62,5 µM de ligands (moracénine A, moracénine B et kuwanone C) soit un ratio ligands/cible allant de 5,12 à 6,83. • 3. Étape de lavage - le mélange de l'enzyme et de l'échantillon est déposé dans un puits préconditionné à l'étape de préconditionnement, puis centrifugé à 14000 g jusqu'à l'élimination de l'essentiel du solvant. Les complexes enzyme-ligands restent à la surface de la membrane du filtre puis sont à nouveau suspendu dans un volume de 100 µL de la même solution à 85% d'acétate d'ammonium et 15% d'éthanol et centrifugé à 14000 g jusqu'à élimination du solvant. Cette procédure est répétée trois fois et élimine tous les composés qui ne sont pas liés à l'enzyme. • 4. Étape de séparation - Les complexes enzyme-ligands retenus dans le filtre sont à nouveau suspendus dans un volume de 10 µL d'eau ultra-pure, puis sont mélangés avec un volume de 40 µL d'acétonitrile pour dénaturer et précipiter l'enzyme et, en même temps libérer les ligands. Le mélange est centrifugé à 21000 g pendant 10 min pour séparer le précipité du surnageant. • 5. Étape d'analyse - Ledit surnageant formant la solution traitée est analysé par chromatographie en phase liquide couplée à une spectrométrie de masse, connue également par l'acronyme UPLC-MS. L'échantillon de référence est analysé également de la même manière, en utilisant les mêmes conditions d'analyse. Les affinités relatives sont calculées selon la méthode décrite ci-après. De préférence, l'échantillon de référence et la solution traitée sont analysés séquentiellement pour éliminer des dispersions dues aux réglages de l'appareillage.
Une analyse par chromatographie en phase liquide fournit un chromatogramme tel que montré par les figures 1 et 2. Le chromatogramme représente une intensité de signal en fonction du temps de rétention dans une colonne. Le signal présente différents pics d'intensité variable. Chaque pic est associé à l'un des ligands présent dans l'échantillon et la solution traitée. • 1. Normalisation de l'intensité du signal analytique pour les ligands dans l'échantillon de référence. Pour chaque chaque ligand CEi dans l'échantillon de référence, on établit des facteurs de normalisation NFeq dudit ligand CEi par comparaison au ligand de référence REF, selon l'équation suivante : NFeq,CEi = (ISeq,CEi)/(ISeq,REF) [formula] où : • NF est un facteur de normalisation; • ISeq,CEi est l'intensité du signal analytique pour le ligand CEi dans l'échantillon; • ISeq,REF est l'intensité du signal analytique pour le ligand de référence REF dans l'échantillon. L'intensité peut être choisie parmi l'aire du pic ou la valeur maximale du pic. Le facteur de normalisation du ligand de référence vaut toujours 1. • 2. […]

tyrosinase = conditions: literature values, 50% reduction of enzyme activity; cited from earlier work

| affinité [1] | affinité (trypsine [2]) | Facteur de normalisation, solution traitée (tyrosinase de champignon; NFTB, peak area UV 270 nm relative to reference ligand moracénine B) | Affinités relatives (tyrosinase de champignon; RA = NFTB/NFeq, reference ligand moracénine B) | Compound | inhibition de l'hyaluronidase (hyaluronidase) [%] | inhibition de la trypsine (trypsine [3]) [%] | IC50 (tyrosinase) [µM] |
| --- | --- | --- | --- | --- | --- | --- | --- |
| affinité importante | très faible affinité |  |  | O=c1c(O)c(-c2ccc(O)c(O)c2)oc2cc(O)cc(O)c12 [quercétine] | 54 | 46 |  |
|  |  | 1,29 | 1,50 | moracénine A |  |  | 10.3 |
